{
  "source": "patent US20110213335A1",
  "about": "“HOLLOW MICRONEEDLE ARRAY AND METHOD” (priority 2008, published 2011)",
  "key": {"[1]": {"details": "oral administration; cited from earlier work"}, "[2]": {"experiment": "Naloxone infusion by hollow microneedle array with resulting PK profile (serum naloxone by LCMSMS)", "details": "female, pig, other: intradermal infusion by hollow microneedle device"}},
  "note": "Structures can show the parent of a compound that is named as a salt.",
  "data": [
    {"smiles": "C=CCN1CC[C@]23c4c5ccc(O)c4O[C@H]2C(=O)CC[C@@]3(O)[C@H]1C5", "note": "[naloxone, naloxone hydrochloride]", "values": [
      {"measurement": "bioavailability when administered orally", "setting": "[1]", "value": "about 2%"},
      {"measurement": "bioavailability", "setting": "[2]", "value": 107, "unit": "%"}
    ]}
  ]
}
